Measured values published in ChEMBL document CHEMBL3885881, “DrugMatrix”.

Species: Rattus norvegicus
Experiment: DrugMatrix - Regimen: Daily Repeat
Assay type: toxicity, organism-based, Sprague-Dawley
Set-up: regimen Daily Repeat, gender Male, age 6-8 weeks
Settings: in vivo, po, route oral GAVAGE, vehicle 100 % SALINE; for ABSOLUTE BASOPHIL / ABSOLUTE EOSINOPHIL / ABSOLUTE LYMPHOCYTE / ABSOLUTE MONOCYTE / ABSOLUTE SEGMENTED NEUTROPHIL / BASOPHIL / EOSINOPHIL / ERYTHROCYTE COUNT / HEMATOCRIT / HEMOGLOBIN / LEUKOCYTE COUNT / LYMPHOCYTE / MEAN CORPUSCULAR HEMOGLOBIN / MEAN CORPUSCULAR HEMOGLOBIN CONCENTRATION / MEAN CORPUSCULAR VOLUME / MONOCYTE / NEUTROPHIL / NUCLEATED RED BLOOD CELLS / PLATELET COUNT: tissue Blood; for ALANINE AMINOTRANSFERASE / ALBUMIN / ALKALINE PHOSPHATASE / ASPARTATE AMINOTRANSFERASE / BLOOD UREA NITROGEN / CARBON DIOXIDE / CHLORIDE / CHOLESTEROL / CREATINE PHOSPHOKINASE / CREATININE / GLUCOSE / LACTATE DEHYDROGENASE / LIPASE / PHOSPHORUS / POTASSIUM / SODIUM / TOTAL BILIRUBIN / TOTAL PROTEIN / URIC ACID: tissue Plasma
[1] = 0 mg/kg, 72 h, dose level Control, time 3 day
[2] = 0 mg/kg, 120 h, dose level Control, time 5 day
[3] = 59 mg/kg, 72 h, dose level Low, time 3 day

NC(=O)NO [HYDROXYUREA]
ABSOLUTE BASOPHIL [1]: 0 CELLS/uL
ABSOLUTE EOSINOPHIL [1]: 16.17 CELLS/uL
ABSOLUTE LYMPHOCYTE [1]: 9117 CELLS/uL
ABSOLUTE MONOCYTE [1]: 16.17 CELLS/uL
ABSOLUTE SEGMENTED NEUTROPHIL [1]: 484 CELLS/uL
BASOPHIL [1]: 0%
EOSINOPHIL [1]: 0.17%
ERYTHROCYTE COUNT [1]: 5.19 x10E6/uL
HEMATOCRIT [1]: 34.9%
HEMOGLOBIN [1]: 13.35 G/DL
LEUKOCYTE COUNT [1]: 9.63 x10E3/uL
LYMPHOCYTE [1]: 94.5%
MEAN CORPUSCULAR HEMOGLOBIN [1]: 25.72 pg
MEAN CORPUSCULAR HEMOGLOBIN CONCENTRATION [1]: 38.25 G/DL
MEAN CORPUSCULAR VOLUME [1]: 67.22 fL
MONOCYTE [1]: 0.17%
NEUTROPHIL [1]: 5.17%
NUCLEATED RED BLOOD CELLS [1]: 0.33 /100WBC
PLATELET COUNT [1]: 1142 x10E3/uL
ALANINE AMINOTRANSFERASE [1]: 47.33 u/L
ALBUMIN [1]: 4.13 G/DL
ALKALINE PHOSPHATASE [1]: 320.33 u/L
ASPARTATE AMINOTRANSFERASE [1]: 76.17 u/L
BLOOD UREA NITROGEN [1]: 12.67 mg/dL
CARBON DIOXIDE [1]: 30.83 mmol/L
CHLORIDE [1]: 99 MEQ/L
CHOLESTEROL [1]: 74.17 mg/dL
CREATINE PHOSPHOKINASE [1]: 271 u/L
CREATININE [1]: 0.15 mg/dL
GLUCOSE [1]: 150.5 mg/dL
LACTATE DEHYDROGENASE [1]: 92.67 u/L
LIPASE [1]: 10 u/L
PHOSPHORUS [1]: 10.67 mg/dL
POTASSIUM [1]: 5.78 MEQ/L
SODIUM [1]: 142.83 MEQ/L
TOTAL BILIRUBIN [1]: 0.1 mg/dL
TOTAL PROTEIN [1]: 6.18 G/DL
URIC ACID [1]: 0.65 mg/dL
ABSOLUTE BASOPHIL [2]: 0 CELLS/uL
ABSOLUTE EOSINOPHIL [2]: 0 CELLS/uL
ABSOLUTE LYMPHOCYTE [2]: 8222.33 CELLS/uL
ABSOLUTE MONOCYTE [2]: 89.67 CELLS/uL
ABSOLUTE SEGMENTED NEUTROPHIL [2]: 471.33 CELLS/uL
BASOPHIL [2]: 0%
EOSINOPHIL [2]: 0%
ERYTHROCYTE COUNT [2]: 5.13 x10E6/uL
HEMATOCRIT [2]: 33.47%
HEMOGLOBIN [2]: 12.97 G/DL
LEUKOCYTE COUNT [2]: 8.78 x10E3/uL
LYMPHOCYTE [2]: 93%
MEAN CORPUSCULAR HEMOGLOBIN [2]: 25.3 pg
MEAN CORPUSCULAR HEMOGLOBIN CONCENTRATION [2]: 38.77 G/DL
MEAN CORPUSCULAR VOLUME [2]: 65.23 fL
MONOCYTE [2]: 1%
NEUTROPHIL [2]: 6%
NUCLEATED RED BLOOD CELLS [2]: 0 /100WBC
PLATELET COUNT [2]: 1298.5 x10E3/uL
ALANINE AMINOTRANSFERASE [2]: 56 u/L
ALBUMIN [2]: 3.98 G/DL
ALKALINE PHOSPHATASE [2]: 321.67 u/L
ASPARTATE AMINOTRANSFERASE [2]: 99.17 u/L
BLOOD UREA NITROGEN [2]: 13.8 mg/dL
CARBON DIOXIDE [2]: 29 mmol/L
CHLORIDE [2]: 98.67 MEQ/L
CHOLESTEROL [2]: 59.67 mg/dL
CREATINE PHOSPHOKINASE [2]: 363 u/L
CREATININE [2]: 0.24 mg/dL
GLUCOSE [2]: 167.83 mg/dL
LACTATE DEHYDROGENASE [2]: 120.83 u/L
LIPASE [2]: 22.5 u/L
PHOSPHORUS [2]: 11.6 mg/dL
POTASSIUM [2]: 5.62 MEQ/L
SODIUM [2]: 143 MEQ/L
TOTAL BILIRUBIN [2]: 0.17 mg/dL
TOTAL PROTEIN [2]: 5.95 G/DL
URIC ACID [2]: 0.87 mg/dL
ABSOLUTE BASOPHIL [3]: 0 CELLS/uL
ABSOLUTE EOSINOPHIL [3]: 15 CELLS/uL
ABSOLUTE LYMPHOCYTE [3]: 4978 CELLS/uL
ABSOLUTE MONOCYTE [3]: 44 CELLS/uL
ABSOLUTE SEGMENTED NEUTROPHIL [3]: 663 CELLS/uL
BASOPHIL [3]: 0%
EOSINOPHIL [3]: 0.33%
ERYTHROCYTE COUNT [3]: 5.08 x10E6/uL
HEMATOCRIT [3]: 33.63%
HEMOGLOBIN [3]: 12.83 G/DL
LEUKOCYTE COUNT [3]: 5.7 x10E3/uL
LYMPHOCYTE [3]: 87.67%
MEAN CORPUSCULAR HEMOGLOBIN [3]: 25.3 pg
MEAN CORPUSCULAR HEMOGLOBIN CONCENTRATION [3]: 38.17 G/DL
MEAN CORPUSCULAR VOLUME [3]: 66.27 fL
MONOCYTE [3]: 0.67%
NEUTROPHIL [3]: 11.33%
NUCLEATED RED BLOOD CELLS [3]: 0 /100WBC
PLATELET COUNT [3]: 1118 x10E3/uL
ALANINE AMINOTRANSFERASE [3]: 47.33 u/L
ALBUMIN [3]: 4.17 G/DL
ALKALINE PHOSPHATASE [3]: 328 u/L
ASPARTATE AMINOTRANSFERASE [3]: 73.67 u/L
BLOOD UREA NITROGEN [3]: 11.33 mg/dL
CARBON DIOXIDE [3]: 30 mmol/L
CHLORIDE [3]: 99 MEQ/L
CHOLESTEROL [3]: 75.33 mg/dL
CREATINE PHOSPHOKINASE [3]: 258 u/L
CREATININE [3]: 0.2 mg/dL
GLUCOSE [3]: 152 mg/dL
LACTATE DEHYDROGENASE [3]: 90 u/L
LIPASE [3]: 10 u/L
PHOSPHORUS [3]: 10.83 mg/dL
POTASSIUM [3]: 5.95 MEQ/L
SODIUM [3]: 142.63 MEQ/L
TOTAL BILIRUBIN [3]: 0.1 mg/dL
TOTAL PROTEIN [3]: 6.07 G/DL
URIC ACID [3]: 0.9 mg/dL
